System: mice
Assay: Hot plate model of acute thermal pain
Type: in vivo
Conditions: hot plate 46.0° C.±1.0° C, tested prior to and 30 min after drug administration, cut-off 120 s
Procedure: The device consisted of an electrically heated surface and an open plexiglass tube (34 cm high×44 cm diameter), as per the hot plate test adapted from Eddy and Leimbach (1953); The animals were confined to the heated surface. The temperature was kept at 46.0° C.±1.0° C. Mice were placed on the hot plate, and the time, recorded with a stopwatch, until either licking of the hind paw or jumping were initiated. Animals were tested prior to and 30 min after drug administration. The pre-drug latencies were between 17 and 45 s. The maximum possible effect (MPE) was defined as the lack of a nociceptive response during the exposure to the heat stimulus. The percentage of MPE was calculated according to the formula: [(T1−T0)/(T2−T0)]×100, where T0 and T1 were the latencies obtained before and after drug injection, and T2 was the cut-off time (120 s).
Data are expressed as mean (±SEM) % MPE. p<0.05 versus vehicle control.

Compound	antinociception in hot plate test (% MPE)
CCC(c1cccc(OC(=O)CC2(CN)CCCCC2)c1)C(C)CN(C)C (centres unmarked) [Compound of Formula 25]	induced dose-dependent antinociception and reached full efficacy
CN1CC[C@]23c4c5ccc(O)c4O[C@H]2[C@@H](O)C=C[C@H]3[C@H]1C5 [morphine]	induced dose-dependent antinociception and reached full efficacy

— patent US20120046272A1, “Novel Therapeutic Compounds” (GRUNENTHAL GMBH, priority 2010, published 2012)
